Measured values from PubChem BioAssay AID330 (DTP/NCI, 2004).
Values joined by “and” are separate entries in the source; they are usually repeats but may differ in a detail not shown here. Equal values may be shown once. Toxic doses and inconclusive results are not listed. The calls were made as follows: active = survival T/C of 150% or more; inactive = T/C below 125% in these data.

Tested on: P388 leukemia ip, CD2F1 mice, survival T/C
Assay: NCI In Vivo Anticancer Drug Screen. Data for tumor model P388 Leukemia (intraperitoneal) in CD2F1 (CDF1) mice
Conditions: endpoint: median survival time, higher = longer survival
Summary of the method: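 Mice carrying the transplanted tumor received test compound or vehicle. Survival was recorded in each group, and the value is the treated-group measurement divided by that of the vehicle-treated control group.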

[1] = dose: 50.0 mg/kg/injection, schedule: Q01DX005 (ip), vehicle: Klucel (hydroxypropylcellulose) (HPC)
[2] = dose: 100.0 mg/kg/injection, schedule: Q01DX005 (ip), vehicle: Klucel (hydroxypropylcellulose) (HPC)
[3] = dose: 200.0 mg/kg/injection, schedule: Q01DX005 (ip), vehicle: Klucel (hydroxypropylcellulose) (HPC)
[4] = dose: 50.0 mg/kg/injection, schedule: Q01DX005 (ip), vehicle: saline with Tween-80
[5] = dose: 100.0 mg/kg/injection, schedule: Q01DX005 (ip), vehicle: saline with Tween-80
[6] = dose: 200.0 mg/kg/injection, schedule: Q01DX005 (ip), vehicle: saline with Tween-80
[7] = dose: 60.0 mg/kg/injection, schedule: Q01DX005 (ip), vehicle: Klucel (hydroxypropylcellulose) (HPC)
[8] = dose: 120.0 mg/kg/injection, schedule: Q01DX005 (ip), vehicle: Klucel (hydroxypropylcellulose) (HPC)
[9] = dose: 240.0 mg/kg/injection, schedule: Q01DX005 (ip), vehicle: Klucel (hydroxypropylcellulose) (HPC)
[10] = dose: 60.0 mg/kg/injection, schedule: Q01DX005 (ip), vehicle: saline with Tween-80
[11] = dose: 120.0 mg/kg/injection, schedule: Q01DX005 (ip), vehicle: saline with Tween-80

Measured: T/C

O=C(O)c1c[nH]c2cc(OCCOc3ccc(F)cc3)ccc2c1=O
inactive: dose: 100.0 mg/kg/injection, schedule: Q04DX003 (ip), vehicle: saline 105 % of control | dose: 200.0 mg/kg/injection, schedule: Q04DX003 (ip), vehicle: saline 105 % of control | dose: 400.0 mg/kg/injection, schedule: Q04DX003 (ip), vehicle: saline 104 % of control

CC(=O)NNC(=O)NCCCCCCNC(=O)NNC(C)=O
inactive: [1] 101 % of control | [2] 97 % of control | [3] 92 % of control | dose: 400.0 mg/kg/injection, schedule: Q01DX005 (ip), vehicle: Klucel (hydroxypropylcellulose) (HPC) 94 % of control

Cc1ccc(NC(=O)c2cc(C)ccc2N)cc1
inactive: [4] 91 % of control | [5] 91 % of control | [6] 101 % of control

Cc1nc2[nH]cc(-c3ccccc3)c2c(=N)n1-c1ccccc1
inactive: dose: 12.5 mg/kg/injection, schedule: Q01DX005 (ip), vehicle: Klucel (hydroxypropylcellulose) (HPC) 102 % of control | dose: 25.0 mg/kg/injection, schedule: Q01DX005 (ip), vehicle: Klucel (hydroxypropylcellulose) (HPC) 106 % of control | [1] 100 % of control and 104 % of control

CC(C)(C)N1C(=O)C(Cl)(C#N)C1c1ccccc1 (stereo not given)
inactive: [7] 95 % of control | [8] 92 % of control | [9] 92 % of control

CC(/C=C/c1ccc2c(c1)OCO2)=N\NC(N)=O
inactive: [4] 100 % of control | [5] 97 % of control | [6] 95 % of control

COC(=O)[C@@H]1CC/C(=C(\C#N)C(=O)OC(C)(C)C)N1
inactive: [10] 95 % of control | [11] 96 % of control | dose: 240.0 mg/kg/injection, schedule: Q01DX005 (ip), vehicle: saline with Tween-80 91 % of control

Oc1ccccc1N=Nc1ccccc1O.[O]=[V]
inactive: dose: 3.13 mg/kg/injection, schedule: Q01DX009 (ip), vehicle: Klucel (hydroxypropylcellulose) (HPC) 99 % of control | dose: 6.25 mg/kg/injection, schedule: Q01DX009 (ip), vehicle: Klucel (hydroxypropylcellulose) (HPC) 107 % of control and 112 % of control | dose: 12.5 mg/kg/injection, schedule: Q01DX009 (ip), vehicle: Klucel (hydroxypropylcellulose) (HPC) 100 % of control and 106 % of control | dose: 25.0 mg/kg/injection, schedule: Q01DX009 (ip), vehicle: Klucel (hydroxypropylcellulose) (HPC) 90 % of control

Nc1ccnc(F)n1
inactive: [7] 100 % of control | [8] 106 % of control | [9] 106 % of control

O=C(O)CC(=O)C(C(=O)O)C(CCc1ccccc1)C(C(=O)O)C(=O)CC(=O)O (stereo not given)
inactive: dose: 3.12 mg/kg/injection, schedule: Q01DX009 (ip), vehicle: saline with Tween-80 92 % of control | dose: 6.25 mg/kg/injection, schedule: Q01DX009 (ip), vehicle: saline with Tween-80 101 % of control | dose: 12.5 mg/kg/injection, schedule: Q01DX009 (ip), vehicle: saline with Tween-80 100 % of control | dose: 50.0 mg/kg/injection, schedule: Q01DX009 (ip), vehicle: saline with Tween-80 89 % of control and 92 % of control | dose: 200.0 mg/kg/injection, schedule: Q01DX009 (ip), vehicle: saline with Tween-80 90 % of control

CC(C)CCN(CCC(C)C)CC(O)c1cc2c(c3ccccc13)CCCC2 (stereo not given)
inactive: dose: 12.5 mg/kg/injection, schedule: Q01DX005 (ip), vehicle: saline with Tween-80 96 % of control | dose: 25.0 mg/kg/injection, schedule: Q01DX005 (ip), vehicle: saline with Tween-80 93 % of control | [4] 103 % of control and 93 % of control | [5] 113 % of control | [6] 108 % of control

COc1ccc(C)cc1NC(=S)C#N
inactive: [10] 98 % of control | [11] 106 % of control

COc1cc(C(=O)NN=C(C)C)cc(OC)c1OC
inactive: [1] 101 % of control | [2] 104 % of control | [3] 101 % of control

CCOP(=O)(Nc1ccccc1OC)OCC
inactive: dose: 50.0 mg/kg/injection, schedule: Q01DX009 (ip), vehicle: saline 104 % of control | dose: 100.0 mg/kg/injection, schedule: Q01DX001 (ip), vehicle: saline 110 % of control | dose: 100.0 mg/kg/injection, schedule: Q01DX009 (ip), vehicle: saline 107 % of control | dose: 200.0 mg/kg/injection, schedule: Q01DX001 (ip), vehicle: saline 105 % of control | dose: 200.0 mg/kg/injection, schedule: Q01DX009 (ip), vehicle: saline 100 % of control | dose: 400.0 mg/kg/injection, schedule: Q01DX001 (ip), vehicle: saline 102 % of control
